The values that follow come from patent publication US11155849B2, “IMP-producing microorganism and method of producing IMP using the same” (CJ CHEILJEDANG CORPORATION, priority 2017, dated 2021).

Experiment [1] has as its system ATCC6872. Briefly: Resistance/susceptibility of strain ATCC6872 to substances (minimal medium, 1.7% agar). The experiment is classed as cell-based, Corynebacterium stationis. The source says:
(§1) ATCC6872 (10^7 cells/mL to 10^8 cells/mL) was suspended in a phosphate buffer (pH 7.0) or in a citrate buffer (pH 5.5) in order to prepare an ATCC6872-derived IMP-producing strain, and then mutation was induced by UV treatment. The resultants were washed twice with a 0.85% saline solution, and then diluted and smeared on a medium containing an appropriate concentration of a substance to be resistant to a minimal medium containing 1.7% agar. Thereafter, colonies were obtained. Each colony was cultured in a nutrient medium and cultured in a seed medium for 24 hours. After 3 to 4 days of culturing in a fermentation medium, colonies with the highest amount of IMP accumulated in the culture medium were selected. In order to produce a high-concentration IMP producing-strain, and to provide adenine auxotrophy, guanine leakage, lysozyme susceptibility, 3,4-dihydroproline resistance, streptomycin resistance, azetidine carboxylic acid resistance, thiaproline resistance, azaserine resistance, sulfaguanidine resistance, norvaline resistance, and trimethoprim resistance, the procedures above were performed sequentially for each substance.
(§2) The compositions of the media are as follows: • Minimal medium: 2% glucose, 0.3% sodium sulfate, 0.1% […], 0.3% K2HPO4, 0.3% magnesium sulfate, calcium chloride (10 mg/L), iron sulfate (10 mg/L), zinc sulfate (1 mg/L), manganese chloride (3.6 mg/L), L-cysteine (20 mg/L), calcium pantothenate (10 mg/L), thiamine hydrochloride (5 mg/L), biotin (30 μg/L), adenine (20 mg/L), guanine (20 mg/L), pH 7.3 • Nutrient medium: 1% peptone, 1% meat juice, 0.25% sodium chloride, 1% yeast extract, 2% agar, pH 7.2 • Seed medium: 1% glucose, 1% peptone, 1% meat juice, 1% yeast extract, 0.25% sodium chloride, adenine (100 mg/L), guanine (100 mg/L), pH 7.5 • Fermentation medium: 0.1% sodium glutamate, 1% ammonium chloride, 1.2% magnesium sulfate, 0.01% calcium chloride, iron sulfate (20 mg/L), manganese sulfate (20 mg/L), zinc sulfate (20 mg/L), copper sulfate (5 mg/L), L-cysteine (23 mg/L), alanine (24 mg/L), nicotinic acid (8 mg/L), biotin (45 μg/L), thiamin hydrochloride (5 mg/L), adenine (30 mg/L), 1.9% phosphoric acid (85%), 2.55% glucose, 1.45% fructose

The subject of experiment [2] is CJI0323. The experiment is classed as cell-based, Corynebacterium stationis. Conditions: strain CJI0323.
From the text: as §1, §2

Consider `O=C(O)C1C=CCN1` (stereo not drawn) [3,4-Dihydroproline], for which the results for the resistance in experiment [1] and in experiment [2] were 1000 µg/mL and 3500 µg/mL, respectively.

Turning to `[N-]=[N+]=CC(=O)OC[C@H](N)C(=O)O` [Azaserine], the resistance in experiment [1] stood at 25 µg/mL; in experiment [2] it was 100 µg/mL.

Consider `O=C(O)[C@@H]1CCN1` [Azetidine carboxylic acid], for which the results for the resistance in experiment [1] and in experiment [2] were 5000 µg/mL and 30000 µg/mL, respectively.

For `CCC[C@H](N)C(=O)O` [Norvaline], the results for the resistance in experiment [1] and in experiment [2] were 200 µg/mL and 2000 µg/mL, respectively.

Turning to `[H]/N=C(/N)N[C@H]1[C@H](O)[C@@H](O)[C@H](O[C@@H]2O[C@@H](C)[C@](O)(C=O)[C@H]2O[C@@H]2O[C@@H](CO)[C@H](O)[C@@H](O)[C@@H]2NC)[C@@H](N/C(N)=N\[H])[C@@H]1O` [Streptomycin], the resistance was 500 µg/mL in experiment [1] and 2000 µg/mL in experiment [2].

For `[H]/N=C(/N)NS(=O)(=O)c1ccc(N)cc1` [Sulfaguanidine], the resistance is 50 µg/mL in experiment [1] and 200 µg/mL in experiment [2].

In the case of `O=C(O)[C@@H]1CSCN1` [Thiaproline], the resistance in experiment [1] came out at 10 µg/mL; in experiment [2] it was 100 µg/mL.

Regarding `COc1cc(Cc2cnc(N)nc2N)cc(OC)c1OC` [Trimethoprim], the resistance in experiment [1] stood at 20 µg/mL; in experiment [2] it was 100 µg/mL.

Turning to Lysozyme, the Lysozyme susceptibility in experiment [1] came out at 80 µg/mL; in experiment [2] it was 8 µg/mL.
